Test system: K24384-001-R-PDC complex spheroids, viability
Assay: Anticancer human tumor K24384-001-R-PDC patient-derived pancreatic adenocarcinoma cell line growth inhibition [GQUAD]
Conditions: for IC50: curve of first compound; for viability, T/C: stronger effect = lower value
Outline: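 Multi-cell-type spheroids of tumor cells with HUVEC and mesenchymal stem cells, treated with drug combinations. Concentrations descend in half-log steps from near clinical Cmax, or from 10 microM where Cmax is unknown; viability read-out.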

[1] = second compound 0.0316 µM, first compound 0.0316 µM
[2] = second compound 0.0316 µM, first compound 0.1 µM
[3] = second compound 0.0316 µM, first compound 0.316 µM
[4] = second compound 0.0316 µM, first compound 1 µM
[5] = second compound 0.0316 µM, first compound 3.16 µM
[6] = second compound 0.0316 µM, first compound 10 µM
[7] = second compound 0.1 µM, first compound 0.0316 µM
[8] = second compound 0.1 µM, first compound 0.1 µM
[9] = second compound 0.1 µM, first compound 0.316 µM
[10] = second compound 0.1 µM, first compound 1 µM
[11] = second compound 0.1 µM, first compound 3.16 µM
[12] = second compound 0.1 µM, first compound 10 µM
[13] = second compound 0.316 µM, first compound 0.0316 µM
[14] = second compound 0.316 µM, first compound 0.1 µM
[15] = second compound 0.316 µM, first compound 0.316 µM
[16] = second compound 0.316 µM, first compound 1 µM
[17] = second compound 0.316 µM, first compound 3.16 µM
[18] = second compound 0.316 µM, first compound 10 µM
[19] = second compound 1 µM, first compound 0.0316 µM
[20] = second compound 1 µM, first compound 0.1 µM
[21] = second compound 1 µM, first compound 0.316 µM
[22] = second compound 1 µM, first compound 1 µM
[23] = second compound 1 µM, first compound 3.16 µM
[24] = second compound 1 µM, first compound 10 µM
[25] = second compound 3.16 µM, first compound 0.0316 µM
[26] = second compound 3.16 µM, first compound 0.1 µM
[27] = second compound 3.16 µM, first compound 0.316 µM
[28] = second compound 3.16 µM, first compound 1 µM
[29] = second compound 3.16 µM, first compound 3.16 µM
[30] = second compound 3.16 µM, first compound 10 µM
[31] = second compound 10 µM, first compound 0.0316 µM
[32] = second compound 10 µM, first compound 0.1 µM
[33] = second compound 10 µM, first compound 0.316 µM
[34] = second compound 10 µM, first compound 1 µM
[35] = second compound 10 µM, first compound 3.16 µM
[36] = second compound 10 µM, first compound 10 µM
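Further: spheroids exposed to compounds for seven days.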

CC1COCCN1c1cc(-c2ccnn2C)c2ccnc(-c3ccn[nH]3)c2n1 (stereo not drawn) + Cc1cnc(CNC(=O)c2c(=O)c3ccc(N4CCCN(C)CC4)nc3n3c2sc2ccccc23)cn1
IC50 (second compound 0.0316 µM): 41.5 nM
IC50 (second compound 0.1 µM): < 31.6 nM
IC50 (second compound 0.316 µM): < 31.6 nM
IC50 (second compound 1 µM): < 31.6 nM
IC50 (second compound 3.16 µM): < 31.6 nM
IC50 (second compound 10 µM): < 31.6 nM
viability, T/C [1]: 53.5%
viability, T/C [2]: 37.8%
viability, T/C [3]: 40%
viability, T/C [4]: 32%
viability, T/C [5]: 34.6%
viability, T/C [6]: 29.9%
viability, T/C [7]: 48.8%
viability, T/C [8]: 51.1%
viability, T/C [9]: 34%
viability, T/C [10]: 41.5%
viability, T/C [11]: 32.2%
viability, T/C [12]: 24.4%
viability, T/C [13]: 44.8%
viability, T/C [14]: 46.4%
viability, T/C [15]: 39.4%
viability, T/C [16]: 34.7%
viability, T/C [17]: 32.8%
viability, T/C [18]: 22.7%
viability, T/C [19]: 42.9%
viability, T/C [20]: 35.2%
viability, T/C [21]: 34%
viability, T/C [22]: 37.4%
viability, T/C [23]: 25.3%
viability, T/C [24]: 22.9%
viability, T/C [25]: 32.8%
viability, T/C [26]: 37.4%
viability, T/C [27]: 31.4%
viability, T/C [28]: 26.8%
viability, T/C [29]: 21.7%
viability, T/C [30]: 19.2%
viability, T/C [31]: 25.4%
viability, T/C [32]: 21.5%
viability, T/C [33]: 20.9%
viability, T/C [34]: 24.8%
viability, T/C [35]: 10.3%
viability, T/C [36]: 8.1%

CC1COCCN1c1cc(C2(O)CC3CCC(C2)O3)c2cnn(-c3ccn[nH]3)c2n1 (stereo not drawn) + Cc1cnc(CNC(=O)c2c(=O)c3ccc(N4CCCN(C)CC4)nc3n3c2sc2ccccc23)cn1
IC50 (second compound 0.0316 µM): 33.3 nM
IC50 (second compound 0.1 µM): < 31.6 nM
IC50 (second compound 0.316 µM): < 31.6 nM
IC50 (second compound 1 µM): < 31.6 nM
IC50 (second compound 3.16 µM): < 31.6 nM
IC50 (second compound 10 µM): < 31.6 nM
viability, T/C [1]: 51.9%
viability, T/C [2]: 39.6%
viability, T/C [3]: 33.7%
viability, T/C [4]: 25.1%
viability, T/C [5]: 26.4%
viability, T/C [6]: 12.3%
viability, T/C [7]: 43.4%
viability, T/C [8]: 37.5%
viability, T/C [9]: 31.1%
viability, T/C [10]: 32.4%
viability, T/C [11]: 26.3%
viability, T/C [12]: 10.8%
viability, T/C [13]: 40.6%
viability, T/C [14]: 37.8%
viability, T/C [15]: 31%
viability, T/C [16]: 31.9%
viability, T/C [17]: 23.6%
viability, T/C [18]: 10.8%
viability, T/C [19]: 39.2%
viability, T/C [20]: 42.2%
viability, T/C [21]: 31.2%
viability, T/C [22]: 26.7%
viability, T/C [23]: 18.1%
viability, T/C [24]: 8.33%
viability, T/C [25]: 42.2%
viability, T/C [26]: 35.7%
viability, T/C [27]: 29.5%
viability, T/C [28]: 27.2%
viability, T/C [29]: 16.4%
viability, T/C [30]: 8.63%
viability, T/C [31]: 27.5%
viability, T/C [32]: 20.4%
viability, T/C [33]: 23.7%
viability, T/C [34]: 19.4%
viability, T/C [35]: 6.65%
viability, T/C [36]: 0.55%

CC1COCCN1c1cc(C2(S(C)(=N)=O)CC2)nc(-c2ccnc3[nH]ccc23)n1 (stereo not drawn) + Cc1cnc(CNC(=O)c2c(=O)c3ccc(N4CCCN(C)CC4)nc3n3c2sc2ccccc23)cn1
IC50 (second compound 0.0316 µM): 2490 nM
IC50 (second compound 0.1 µM): 2190 nM
IC50 (second compound 0.316 µM): 5270 nM
IC50 (second compound 1 µM): < 31.6 nM
IC50 (second compound 3.16 µM): < 31.6 nM
IC50 (second compound 10 µM): < 31.6 nM
viability, T/C [1]: 85.6%
viability, T/C [2]: 100%
viability, T/C [3]: 83.5%
viability, T/C [4]: 55.7%
viability, T/C [5]: 55%
viability, T/C [6]: 30.4%
viability, T/C [7]: 69%
viability, T/C [8]: 90.7%
viability, T/C [9]: 64.5%
viability, T/C [10]: 56.8%
viability, T/C [11]: 50.5%
viability, T/C [12]: 39.6%
viability, T/C [13]: 57.8%
viability, T/C [14]: 64.2%
viability, T/C [15]: 56.1%
viability, T/C [16]: 52.3%
viability, T/C [17]: 59.8%
viability, T/C [18]: 40.1%
viability, T/C [19]: 41.5%
viability, T/C [20]: 45.2%
viability, T/C [21]: 45.3%
viability, T/C [22]: 42.7%
viability, T/C [23]: 43.7%
viability, T/C [24]: 32.5%
viability, T/C [25]: 41.9%
viability, T/C [26]: 50.4%
viability, T/C [27]: 37.8%
viability, T/C [28]: 43.1%
viability, T/C [29]: 37.6%
viability, T/C [30]: 25.8%
viability, T/C [31]: 34.5%
viability, T/C [32]: 23.2%
viability, T/C [33]: 31.9%
viability, T/C [34]: 35.2%
viability, T/C [35]: 35.5%
viability, T/C [36]: 21.6%

COc1ccc([C@@H](O)c2cc(-c3ncnc4cc(N5CCOCC5)ccc34)c(F)cc2Cl)nn1 + Cc1cnc(CNC(=O)c2c(=O)c3ccc(N4CCCN(C)CC4)nc3n3c2sc2ccccc23)cn1
IC50 (second compound 0.0316 µM): 1240 nM
IC50 (second compound 0.1 µM): 497 nM
IC50 (second compound 0.316 µM): 120 nM
IC50 (second compound 1 µM): < 31.6 nM
IC50 (second compound 3.16 µM): < 31.6 nM
IC50 (second compound 10 µM): < 31.6 nM
viability, T/C [1]: 89.9%
viability, T/C [2]: 81.5%
viability, T/C [3]: 70.8%
viability, T/C [4]: 45.9%
viability, T/C [5]: 43.8%
viability, T/C [6]: 23.6%
viability, T/C [7]: 57.2%
viability, T/C [8]: 68.7%
viability, T/C [9]: 46.5%
viability, T/C [10]: 42.3%
viability, T/C [11]: 39.1%
viability, T/C [12]: 17.6%
viability, T/C [13]: 48.6%
viability, T/C [14]: 57.6%
viability, T/C [15]: 43.1%
viability, T/C [16]: 41.5%
viability, T/C [17]: 34%
viability, T/C [18]: 12.6%
viability, T/C [19]: 40.5%
viability, T/C [20]: 59.9%
viability, T/C [21]: 35.4%
viability, T/C [22]: 34.1%
viability, T/C [23]: 21.7%
viability, T/C [24]: 12.7%
viability, T/C [25]: 36.7%
viability, T/C [26]: 41.9%
viability, T/C [27]: 33.4%
viability, T/C [28]: 29.8%
viability, T/C [29]: 24.6%
viability, T/C [30]: 10.2%
viability, T/C [31]: 28.1%
viability, T/C [32]: 29.9%
viability, T/C [33]: 27.4%
viability, T/C [34]: 27.4%
viability, T/C [35]: 16.8%
viability, T/C [36]: 0.52%

From PubChem BioAssay AID2060483 (Molecular Pharmacology Branch, DTP, NCI, 2025)
